Measurements reported in article PMC11596392, “Enhanced Antibacterial, Anti-Inflammatory, and Antibiofilm Activities of Tryptophan-Substituted Peptides Derived from Cecropin A-Melittin Hybrid Peptide BP100” (Molecules, 2024).
Where no end group is shown, it is not given here.

How the values were obtained:
[1] = system: S. epidermidis (KCTC 1917); type: cell-based, Staphylococcus epidermidis; conditions: broth microdilution in MHB, 37 °C, 24 h, 100% inhibition of growth
Experimental: (§1) The antibacterial efficacy of the synthesized peptides was evaluated by determining the minimal inhibitory concentrations (MICs) against six standard bacterial strains and five drug-resistant bacterial strains using the Clinical and Laboratory Standards Institute (CLSI) microdilution method. Melittin served as the positive control.
(§2) The minimal inhibitory concentrations (MICs) of the peptides against bacterial strains were determined using a modified broth-microdilution method in accordance with the National Committee for Clinical Laboratory Standards (NCCLS) guidelines. Overnight cultures were diluted in cation-adjusted Mueller–Hinton Broth (MHB) to achieve an inoculum density of 2 × 10^6 CFU/mL. A two-fold serial dilution of the peptide solution (100 μL) was introduced into microtiter plates, followed by the addition of 100 μL of bacterial suspension. The plates were then incubated at 37 °C for 24 h to determine the MICs. Wells containing only culture media served as negative controls, while those with added bacteria functioned as positive controls. The MIC, expressed in μM, was defined as the lowest peptide concentration that prevented visible bacterial growth. This protocol was also employed to determine MICs in the presence of physiological salts (150 mM of NaCl, 4.5 mM of KCl, 6 μM of NH4Cl, 1 mM of MgCl2, 2.5 mM of CaCl2, and 4 μM of FeCl3) and 20% human serum to assess the peptides’ efficacy under conditions more closely resembling physiological environments. All experiments were conducted in triplicate and repeated three times independently to ensure reproducibility and statistical significance of the results.

[2] = system: S. typhimurium (KCTC 1926); type: cell-based, Salmonella typhimurium; conditions: broth microdilution in MHB, 37 °C, 24 h, 100% inhibition of growth
Experimental: as §1, §2

[3] = system: sheep red blood cells (sRBCs); assay: Hemolytic activity assay; type: cell-based; conditions: 4% (v/v) sheep red blood cells in PBS, 1 h, 37 °C; 1 to 256 μM tested
Experimental: To assess toxicity in mammalian cells, we evaluated the hemolytic activity of the peptides on sheep red blood cells (sRBCs). […] The therapeutic index (TI), a measure commonly employed to evaluate the cell selectivity of antibacterial agents, was calculated as the ratio of the concentration causing 10% hemolysis of sRBCs (HC10) to the GM [19, 20, 21, 22].
The hemolytic activity of the peptides was tested through hemolysis assay of sheep red blood cells (sRBCs). The sRBCs were diluted in PBS to achieve a 4% (v/v) concentration. Subsequently, 100 μL of peptide solutions, ranging from 1 to 256 μM, was dispensed into a 96-well plate containing an equal volume of the erythrocyte suspension. After incubating for 1 h at 37 °C and centrifuging at 1000× g for 10 min, 100 μL of the supernatant was transferred to a new 96-well plate. Hemoglobin release was quantified using a microplate reader at a wavelength of […]. The percentage of hemolysis was calculated using percentage hemolysis = 100 × [[…]], where A represents the absorbance of the peptide-treated sample at 540 nm, A0 corresponds to the absorbance value representing 0% hemolysis in PBS, and At corresponds to the absorbance value representing 100% hemolysis in 0.1% Triton X-100.

MRSA (CCARM 3090) = type: cell-based, methicillin-resistant Staphylococcus aureus; conditions: broth microdilution in MHB, 37 °C, 24 h, 100% inhibition of growth
Experimental: as §1, §2

MRSA (CCARM 3089) = type: cell-based, methicillin-resistant Staphylococcus aureus; conditions: broth microdilution in MHB, 37 °C, 24 h, 100% inhibition of growth
Experimental: as §1, §2

VREF (ATCC 51559) = type: cell-based, vancomycin-resistant Enterococcus faecium; conditions: broth microdilution in MHB, 37 °C, 24 h, 100% inhibition of growth
Experimental: as §1, §2

E. coli (KCTC 1682) = type: cell-based, Escherichia coli; conditions: broth microdilution in MHB, 37 °C, 24 h, 100% inhibition of growth
Experimental: as §1, §2

B. subtilis (KCTC 3068) = type: cell-based, Bacillus subtilis; conditions: broth microdilution in MHB, 37 °C, 24 h, 100% inhibition of growth
Experimental: as §1, §2

[4] = system: preformed MDRPA (CCARM 2095) biofilms; type: cell-based, multidrug-resistant Pseudomonas aeruginosa; conditions: 24 h treatment
Method in brief: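 MDRPA CCARM 2095 biofilms grown 24 h at 37 °C, 110 rpm on Calgary peg lids in LB from 1 × 10^6 CFU/mL, then exposed to peptides 24 h. Pegs sonicated into LB recovery plate, regrown 24 h; MBEC is lowest concentration preventing turbidity, median of triplicates.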

S. aureus (KCTC 1621) = type: cell-based, Staphylococcus aureus; conditions: broth microdilution in MHB, 37 °C, 24 h, 100% inhibition of growth
Experimental: as §1, §2

## KKWWKKILKYL-NH2 [BP5]
[1]
  Minimal Inhibitory Concentration (MIC): 1 µM
[2]
  Minimal Inhibitory Concentration (MIC): 2 µM
[3]
  HC10 (peptide concentration that caused 10% hemolysis): >256 µM
MRSA (CCARM 3090)
  Minimal Inhibitory Concentration (MIC): 8 µM
MRSA (CCARM 3089)
  Minimal Inhibitory Concentration (MIC): 4 µM
VREF (ATCC 51559)
  Minimal Inhibitory Concentration (MIC): 8 µM
E. coli (KCTC 1682)
  Minimal Inhibitory Concentration (MIC): 2 µM
B. subtilis (KCTC 3068)
  Minimal Inhibitory Concentration (MIC): 2 µM
[4]; 50% eradication
  MBEC50: 2 µM
[4]; 90% eradication
  MBEC90: 8 µM
S. aureus (KCTC 1621)
  Minimal Inhibitory Concentration (MIC): 2 µM
